This is an account of results in patent publication US20250041429A1, “COMPOUND HAVING BTK PROTEIN DEGRADATION ACTIVITY, AND MEDICAL USES THEREOF” (UBIX THERAPEUTICS, INC., priority 2021, published 2025).

The test addresses T1, BTK protein (Homo sapiens, UniProt Q06187).
T1 construct: endogenous in cells; host or cells: TMD-8 cells
Nature of the test: Measurement of BTK protein degradation ability in TMD-8 cells (Western blotting). In kind it is cell-based. Particulars: harvested after 24 hours; for BTK degradation (%) 10 nM: compound 10 nM; for BTK degradation (%) 100 nM: compound 100 nM; for BTK degradation (%) 1 nM: compound 1 nM. As for the experimental part: TMD-8, RAMOS, or 293T BTK MUT (C481S) cells were treated with the synthesized compounds, and then the amount of BTK protein present in the cells was measured using Western blotting detection. The protocol for the experiment conducted using TMD-8 cells was as follows:
[Culture] TMD-8 cells were resuspended in RPMI1640 MEDIUM (Hyclone, SH30027.01), 10% FBS (Hyclone, SV30207.02), and 1% Penicillin-streptomycin (Welgene, LS 202-02) media, and 1 mL of this suspension was seeded in a 12-well plate at a cell concentration of 1×10^6/mL.
[Compound treatment] The 12-well plate was treated as follows: The 10 mM stock was serially diluted 1/10 with DMSO (3 μL+27 μL DMSO), and cells were treated with compounds at final concentrations of 0.1, 1, 10 μM or 0.0001, 0.001, 0.01, 0.1 μM, and harvested after 24 hours. In the negative control group, DMSO diluted 1/10 was added to the media. (3 μL DMSO+27 μL media)
[Harvest] Each well was pipetted with a 1 mL pipette, collected in a 1.5 mL microtube, and centrifuged (500 g, 5 min, 4° C.). After removing the supernatant, it was washed with PBS and centrifuged again (500 g, 5 min, 4° C.). The supernatant was removed and the pellet was collected.
[Cell lysis and Sample preparation] lysis buffer was prepared as follows: RIPA buffer (Biosesang, RC2038-050-00), 0.5 mM PMSF (SIGMA, P7626) and 1× Protease/Phosphatase Inhibitor (Cell signaling, 5872S) were added at 60-70 μL per well and left on ice for 30 minutes. (Vortexing at 0 and 30 minutes, respectively), followed by sonication (10 seconds pulse, 30 seconds rest, 5 cycles, 70% amplification) and centrifuge (15000 g, 15 min, 4° C.). Only the supernatant was collected and transferred to a new microtube. The samples were diluted by ½ with RIPA buffer in a 96-well plate. 200 μL of the mixture A:B=50:1 of the BCA Protein Assay Kit (iNtRON, 21071) was added each, stayed at 37° C. for 30 minutes, and cooled for 10 minutes. Afterwards, absorbance was measured at 562 nm using BioTek's SYNERGY H1 microplate reader. After making a sample by quantifying the protein using the measured value, it was boiled at 70° C. for 10 minutes. The sample buffer used at this time was a mixture of NuPAGE or Bolt 4× sample buffer (Invitrogen) and each 10× sample reducing agent according to the gel to be used. RIPA buffer was used for protein dilution.
[Western blotting detection method] The same amount of sample was loaded on NuPAGE or Bolt Bis-tris 4-12% gradient gel and run (200 V, 35 minutes). It was transferred to a […] NC membrane using Trans-blot Turbo (BIO-RAD) (1.3 A constant, 25 V limit, 15 minutes). For blocking, skim milk or Intercept Blocking Buffer (LI-COR, 927-60001): 0.1% TBST=1:1 was used at room temperature for 1 hour. Anti BTK Rabbit (1:1,000 in 5% skim milk/0.2% TBST, size: 77 kDa, Cell signaling Technology) was reacted at 4° C. for 16 hours or at room temperature for 2 hours. Anti GAPDH Rabbit (1:10,000 in 5% BSA/0.2% TBST, size: 36 kDa, GENETEX) and Anti β-actin mouse (1:10,000 in 5% BSA/0.2% TBST, RT, size: 43 kDa, GENETEX) were reacted at room temperature for 1 hour or 3 hours. The samples were washed 3 times with 0.5% TBST for 5 minutes each. Secondary antibodies, Anti-Rabbit IgG (1:5,000 in 5% Skim milk/TBST, CST), IRDye® 800CW Goat anti-Rabbit IgG Secondary Antibody (1:10,000 in 5% skim/TBST, RT 45 min), IRDye® 680RD Goat anti-Mouse IgG Secondary Antibody (1:10,000 in 5% skim/TBST, RT 45 min) were added depending on each sample and reacted for 45 minutes on a rocker at room temperature. The samples were washed 5 times with 0.5% TBST for 5 minutes each and detected with LI-COR's Odyssey. At this time, BTK was detected using SuperSignal West Pico PLUS Chemiluminescent Substrate or SuperSignal West femto Maximum Sensitivity Substrate, and house-keeping genes were detected as is.

T1 sequence (Q06187 whole entry): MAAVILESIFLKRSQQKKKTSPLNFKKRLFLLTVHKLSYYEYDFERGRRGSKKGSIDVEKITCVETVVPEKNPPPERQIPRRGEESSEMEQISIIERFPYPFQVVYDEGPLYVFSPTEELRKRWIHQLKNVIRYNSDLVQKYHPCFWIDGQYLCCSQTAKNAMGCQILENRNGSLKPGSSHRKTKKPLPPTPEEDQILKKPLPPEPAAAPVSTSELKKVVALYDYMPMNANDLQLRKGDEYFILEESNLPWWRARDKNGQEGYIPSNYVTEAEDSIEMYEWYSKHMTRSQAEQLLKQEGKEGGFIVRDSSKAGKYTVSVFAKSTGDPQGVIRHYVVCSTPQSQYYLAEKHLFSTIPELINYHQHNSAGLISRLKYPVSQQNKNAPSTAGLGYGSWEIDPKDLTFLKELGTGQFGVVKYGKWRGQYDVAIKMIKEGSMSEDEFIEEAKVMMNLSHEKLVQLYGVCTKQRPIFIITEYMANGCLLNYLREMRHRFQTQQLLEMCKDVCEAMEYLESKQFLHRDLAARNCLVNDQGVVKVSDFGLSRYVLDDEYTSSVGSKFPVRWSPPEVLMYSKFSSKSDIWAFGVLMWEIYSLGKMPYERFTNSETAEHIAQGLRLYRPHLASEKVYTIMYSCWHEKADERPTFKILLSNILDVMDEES

Regarding `Cc1c(NC(=O)N2CC(OC(C)C)C2)cc(F)cc1-c1ccnc(Nc2ccc(N3CCN(CC4CCN(c5ccc6c(c5)C(=O)N(C5CCC(=O)NC5=O)C6=O)CC4)CC3)cc2)n1` (stereo not drawn) [Example 23, N-(3-(2-((4-(4-((1-(2-(2,6-dioxopiperidin-3-yl)-1,3-dioxoisoindolin-5-yl)piperidin-4-yl)methyl)piperazin-1-yl)phenyl)amino)pyrimidin-4-yl)-5-fluoro-2-methylphenyl)-3-isopropoxyazetidine-1-carboxamide], the “BTK degradation (%) 10 nM” value turned out to be 72% and the “BTK degradation (%) 100 nM” value turned out to be 91.5%.
For `Cc1c(NC(=O)c2cnn(C(C)(C)C)c2)cc(F)cc1-c1ccnc(Nc2ccc(N3CCN(CC4CCN(c5ccc6c(c5)C(=O)N(C5CCC(=O)NC5=O)C6=O)CC4)CC3)cc2)n1` (stereo not drawn) [Example 24, 1-(tert-butyl)-N-(3-(2-((4-(4-((1-(2-(2,6-dioxopiperidin-3-yl)-1,3-dioxoisoindolin-5-yl)piperidin-4-yl)methyl)piperazin-1-yl)phenyl)amino)pyrimidin-4-yl)-5-fluoro-2-methylphenyl)-1H-pyrazole-4-carboxamide], in that order: 6.5% and 20%.
The corresponding values for `Cc1c(NC(=O)c2cn(C(C)(C)C)nn2)cc(F)cc1-c1ccnc(Nc2ccc(N3CCN(CC4CCN(c5ccc6c(c5)C(=O)N(C5CCC(=O)NC5=O)C6=O)CC4)CC3)cc2)n1` (stereo not drawn) [Example 25, 1-(tert-butyl)-N-(3-(2-((4-(4-((1-(2-(2,6-dioxopiperidin-3-yl)-1,3-dioxoisoindolin-5-yl)piperidin-4-yl)methyl)piperazin-1-yl)phenyl)amino)pyrimidin-4-yl)-5-fluoro-2-methylphenyl)-1H-1,2,3-triazole-4-carboxamide] are 8.5% and 24%.
Consider `Cc1c(NC(=O)N2CC(OC(C)C)C2)cc(F)cc1-c1ccnc(Nc2ccc(N3CCN(CC4CCN(c5ccc6c(n5)CN(C5CCC(=O)NC5=O)C6=O)CC4)CC3)cc2)n1` (stereo not drawn) [Example 26, N-(3-(2-((4-(4-((1-(6-(2,6-dioxopiperidin-3-yl)-5-oxo-6,7-dihydro-5H-pyrrolo[3,4-b]pyridin-2-yl)piperidin-4-yl)methyl)piperazin-1-yl)phenyl)amino)pyrimidin-4-yl)-5-fluoro-2-methylphenyl)-3-isopropoxyazetidine-1-carboxamide], for which the “BTK degradation (%) 1 nM” value was 15.5%, the “BTK degradation (%) 10 nM” value is 76% and the “BTK degradation (%) 100 nM” value amounted to 93%.
For `Cc1c(NC(=O)N2CC(OC(C)C)C2)cc(F)cc1-c1ccnc(Nc2ccc(N3CCN(CC4CN(c5ccc6c(c5)C(=O)N(C5CCC(=O)NC5=O)C6=O)C4)CC3)cc2)n1` (stereo not drawn) [Example 27, N-(3-(2-((4-(4-((1-(2-(2,6-dioxopiperidin-3-yl)-1,3-dioxoisoindolin-5-yl)azetidin-3-yl)methyl)piperazin-1-yl)phenyl)amino)pyrimidin-4-yl)-5-fluoro-2-methylphenyl)-3-isopropoxyazetidine-1-carboxamide], the “BTK degradation (%) 1 nM” value worked out at 26.5%, the “BTK degradation (%) 10 nM” value is 71.5% and the “BTK degradation (%) 100 nM” value amounted to 94.5%.
The corresponding values for `Cc1cc(CNC(=O)N2CC(OC(C)C)C2)cc(-c2ccnc(Nc3ccc(N4CCN(CC5CCN(c6ccc7c(c6)C(=O)N(C6CCC(=O)NC6=O)C7=O)CC5)CC4)cc3)n2)c1` (stereo not drawn) [Example 28, N-(3-(2-((4-(4-((1-(2-(2,6-dioxopiperidin-3-yl)-1,3-dioxoisoindolin-5-yl)piperidin-4-yl)methyl)piperazin-1-yl)phenyl)amino)pyrimidin-4-yl)-5-methylbenzyl)-3-isopropoxyazetidine-1-carboxamide] are 18%, 12% and 4.5%.
The corresponding values for `Cc1cc(NC(=O)N2CC(OC(C)C)C2)cc(-c2ccnc(Nc3ccc(N4CCN(CC5CCN(c6ccc7c(c6)C(=O)N(C6CCC(=O)NC6=O)C7=O)CC5)CC4)cc3)n2)c1` (stereo not drawn) [Example 29, N-(3-(2-((4-(4-((1-(2-(2,6-dioxopiperidin-3-yl)-1,3-dioxoisoindolin-5-yl)piperidin-4-yl)methyl)piperazin-1-yl)phenyl)amino)pyrimidin-4-yl)-5-methylphenyl)-3-isopropoxyazetidine-1-carboxamide] are 7%, 40.5% and 81.5%.
For `Cc1cc(-c2ccnc(Nc3ccc(N4CCN(CC5CCN(c6ccc7c(c6)C(=O)N(C6CCC(=O)NC6=O)C7=O)CC5)CC4)cc3)n2)ccc1COC(=O)N1CC(OC(C)C)C1` (stereo not drawn) [Example 30, 4-(2-((4-(4-((1-(2-(2,6-dioxopiperidin-3-yl)-1,3-dioxoisoindolin-5-yl)piperidin-4-yl)methyl)piperazin-1-yl)phenyl)amino)pyrimidin-4-yl)-2-methylbenzyl 3-isopropoxyazetidine-1-carboxylate], in that order: −1%, 20.5% and 91.5%.
Regarding `Cc1cc(-c2ccnc(Nc3ccc(N4CCN(CC5CN(c6ccc7c(c6)C(=O)N(C6CCC(=O)NC6=O)C7=O)C5)CC4)cc3)n2)ccc1CNC(=O)c1cnn(C(C)(C)C)c1` (stereo not drawn) [Example 31, 1-(tert-butyl)-N-(4-(2-((4-(4-((1-(2-(2,6-dioxopiperidin-3-yl)-1,3-dioxoisoindolin-5-yl)azetidin-3-yl)methyl)piperazin-1-yl)phenyl)amino)pyrimidin-4-yl)-2-methylbenzyl)-1H-pyrazole-4-carboxamide], the “BTK degradation (%) 1 nM” value came to 61.5%, the “BTK degradation (%) 10 nM” value is reported as 94.5% and the “BTK degradation (%) 100 nM” value is on record as 98.5%.
In the case of `Cc1cc(-c2ccnc(Nc3ccc(N4CCN(CC5CN(c6ccc7c(c6)C(=O)N(C6CCC(=O)NC6=O)C7=O)C5)CC4)cc3)n2)ccc1CNC(=O)c1cn(C(C)(C)C)nn1` (stereo not drawn) [Example 32, 1-(tert-butyl)-N-(4-(2-((4-(4-((1-(2-(2,6-dioxopiperidin-3-yl)-1,3-dioxoisoindolin-5-yl)azetidin-3-yl)methyl)piperazin-1-yl)phenyl)amino)pyrimidin-4-yl)-2-methylbenzyl)-1H-1,2,3-triazole-4-carboxamide], the “BTK degradation (%) 1 nM” value stood at 58.5%, the “BTK degradation (%) 10 nM” value is listed as 92% and the “BTK degradation (%) 100 nM” value is 98.5%.
The corresponding values for `Cc1cc(-c2ccnc(Nc3ccc(N4CCN(CC5CCN(c6ccc7c(c6)C(=O)N(C6CCC(=O)NC6=O)C7=O)CC5)CC4)cc3)n2)ccc1CNC(=O)c1cnn(C(C)C)c1` (stereo not drawn) [Example 33, N-(4-(2-((4-(4-((1-(2-(2,6-dioxopiperidin-3-yl)-1,3-dioxoisoindolin-5-yl)piperidin-4-yl)methyl)piperazin-1-yl)phenyl)amino)pyrimidin-4-yl)-2-methylbenzyl)-1-isopropyl-1H-pyrazole-4-carboxamide] are 49.5%, 93.5% and 99.5%.
